Test results as given in PMC8729770, “In Vitro Evaluation of Antimicrobial Peptides from the Black Soldier Fly (Hermetia Illucens) against a Selection of Human Pathogens” (Microbiology Spectrum, 2022).
Read-outs that look alike come from different tables or passages of the source. Ends that are not written are not given here.

Columns and labels:
[1] = test system: M. tuberculosis ATCC 25177 (H37Ra); conditions: for IC50: read-out: IC50 M. tuberculosis ATCC 25177 (H37Ra), starting at 32 μM, 5×10^5 CFU/mL, 7 days, 37°C, resazurin; for MIC M. tuberculosis ATCC 25177 (H37Ra): visual
[2] = test system: E. coli ATCC 8739; conditions: ATCC 8739, 16 h
[3] = test system: E. coli ATCC 8739; type: cell-based, Escherichia coli; conditions: ATCC 8739, 16 h
Experimental: To detect antimicrobial activity of the BSF AMPs, the peptide library underwent screening against a panel of microorganisms, consisting of S. aureus ATCC 6538, E. coli ATCC 8739, P. aeruginosa ATCC 9027, C. albicans B59630, and A. fumigatus B42928. Serial dilutions of the peptides were prepared from the DMSO stock solutions in sterile demineralized water in 96-well plates using an automated liquid-handling workstation (Beckman Coulter Biomek 3000) in end volumes of 10 μL. The final in-plate concentration of DMSO was <1%. Peptide concentrations ranged from 64 μM to 0.25 μM for the first evaluation, and from 32 μM to 0.016 μM for the independent repeat. As references, doxycycline (Sigma-Aldrich; S. aureus, E. coli, P. aeruginosa), flucytosine (Sigma-Aldrich; C. albicans), and econazole (Sigma-Aldrich; A. fumigatus) were used. Suspensions of a starting inoculum of 5 × 10^3 CFU/mL (E. coli, S. aureus, C. albicans, A. fumigatus) and 5 × 10^4 CFU/mL (P. aeruginosa) were prepared in MHB (bacterial species) or RPMI medium (fungal species) and 190 μL was added to the 96-well plates. Plates were incubated for 16 h (E. coli, S. aureus, P. aeruginosa), 24 h (C. albicans), or 48 h (A. fumigatus) at 37°C. After incubation, read-out of the antimicrobial activity was performed using a resazurin assay. Then, 20 μL of a 0.01% (wt/vol) resazurin (Sigma-Aldrich) solution was added to each well and plates were incubated for 15 min (S. aureus), 30 min (E. coli), 45 min (P. aeruginosa), 4 h (C. albicans), or 17 h (A. fumigatus) to allow resazurin reduction to take place. Fluorescence was read using a microplate reader (Telix) at λexcitation = 550 nm and λemission = 590. […] MIC values were determined visually. Medium in the wells with no visual growth was plated on MHA to detect the MBC, defined as ≥3 log reduction compared with the growth control.

[4] = test system: K. pneumoniae ATCC 13883; conditions: ATCC 13883, 16 h
[5] = test system: B. cenocepacia LMG 16656; conditions: for IC50: read-out: IC50 B. cenocepacia LMG 16656, starting at 32 μM, 10^5 CFU/mL, 48 h, 37°C, resazurin; for MIC B. cenocepacia LMG 16656: visual
[6] = test system: P. aeruginosa ATCC 15442; conditions: ATCC 15442, 16 h
[7] = test system: preformed P. aeruginosa ATCC 15442 biofilm; test: Biofilm eradication (postexposure); type: cell-based, Pseudomonas aeruginosa; conditions: at 64 μM and 128 μM; resazurin
Experimental: After 16 h of incubation at 37°C and shaking at 110 rpm (New Brunswick Innova 4300), a resazurin assay was used as described by Gilbert-Girard et al. to determine the viability of the bacterial cells in the biofilm ([79]). After incubation, the growth medium was removed from the well plates and the bacterial biofilms were washed once with PBS to remove remaining planktonic cells. […] The fluorescence of the wells was measured at λexcitation = 550 nm and λemission = 590 using a microplate reader (Promega). Afterwards, a crystal violet staining was applied to determine the biomass of the biofilms ([79]). The resazurin solution was removed from the well plates and 200 μL of 100% ethanol (VWR Chemicals) was added to fix the biofilms. After 15 min of incubation, the ethanol was discarded from the wells and the plates were left to air dry for 30 min. […] The staining solution was removed after 5 min and the biofilms were washed with PBS. After air-drying for 10 min, the crystal violet stain was solubilized in 200 μL of 100% ethanol. […] The experiment was carried out three times. Polymyxin B sulfate (Sigma-Aldrich) was included as a reference. […] The next day, bacterial viability and biomass were determined with a resazurin assay and crystal violet assay as described earlier. […]

Substance	IC50 ([1]; repeat 1) [µM]	IC50 ([1]; repeat 2) [µM]	MIC M. tuberculosis ATCC 25177 (H37Ra) ([1]; repeat 1) [µM]	MIC M. tuberculosis ATCC 25177 (H37Ra) ([1]; repeat 2) [µM]	IC50 [2] [µM]	MIC E. coli ATCC 8739 [3] [µM]	MIC K. pneumoniae [4] [µM]	IC50 ([5]; repeat 1) [µM]	IC50 ([5]; repeat 2) [µM]	MIC B. cenocepacia LMG 16656 ([5]; repeat 1) [µM]	MIC B. cenocepacia LMG 16656 ([5]; repeat 2) [µM]	MIC P. aeruginosa ATCC 15442 [6] [µM]	reduction in viability of preformed biofilm [7]
SWWKKVFKPVEKLGQRVRDATIQGIGIAQQGANVLATVRGGPPQ-NH2 [Hill-Cec1]	> 32	> 32	>32	>32	0.15	0.25	0.25 to 0.5	> 32	> 32	>32	>32	1	
polymyxin B [reference compound]													over 70%
